Numbered stars: 1 amine (or outer) side, 2 acyl side, 3 side chain; on linkers, the order of the positions; unused ones are H or OH. Bridge positions count the residues as written; N and C are the ends. Side chains are listed from the residue outwards. Peptide text beside a SMILES is read from it. * marks the point of attachment. C20 diacid = O=C(O)CCCCCCCCCCCCCCCCCCC(=O)*; γGlu = O=C(O)[C@H](CCC(=O)[*:2])N[*:1]
How the values were obtained:
[1] = target: T1, human amylin receptor (amylin 3(a) receptor: human calcitonin receptor + RAMP-3) (Homo sapiens, UniProt O60896+P30988); experiment: Assay (II)a functional assay, human amylin receptor (CRE luciferase, BHK cells); type: cell-based; conditions: for EC50: functional assay, human amylin receptor, read-out: hAmylin-R funct. EC50
T1 construct: expressed in transfected cells
T1 sequence (P30988 25-474): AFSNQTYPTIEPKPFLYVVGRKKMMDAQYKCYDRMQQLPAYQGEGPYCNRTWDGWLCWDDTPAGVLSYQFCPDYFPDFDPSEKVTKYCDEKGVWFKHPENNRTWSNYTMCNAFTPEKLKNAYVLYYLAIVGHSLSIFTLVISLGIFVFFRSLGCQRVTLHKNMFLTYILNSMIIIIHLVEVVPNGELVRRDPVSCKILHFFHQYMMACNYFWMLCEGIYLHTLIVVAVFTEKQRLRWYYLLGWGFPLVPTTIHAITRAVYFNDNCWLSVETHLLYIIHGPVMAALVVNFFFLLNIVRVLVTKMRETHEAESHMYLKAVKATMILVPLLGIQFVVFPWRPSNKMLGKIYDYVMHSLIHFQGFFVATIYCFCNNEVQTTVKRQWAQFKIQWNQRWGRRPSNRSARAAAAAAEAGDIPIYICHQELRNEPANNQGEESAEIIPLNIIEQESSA
T1 sequence (O60896 24-148 partner): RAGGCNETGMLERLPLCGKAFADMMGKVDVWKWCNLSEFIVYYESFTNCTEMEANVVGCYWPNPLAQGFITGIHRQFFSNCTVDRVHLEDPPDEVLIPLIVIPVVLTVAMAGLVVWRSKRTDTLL

[2] = target: T2, human calcitonin receptor (Homo sapiens, UniProt P30988); experiment: Assay (VII) binding to the human calcitonin receptor (SPA, 125I-Calcitonin); conditions: read-out: hCTR bind IC50;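 note: cell membranes coupled to SPA beads, competitive displacement read by scintillation counting, IC50 derived from a one-site competition fit as a measure of receptor affinity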
T2 construct: expressed in transfected cells
T2 sequence (P30988 25-474): T1 sequence (P30988 25-474)

Wistar rats = experiment: Assay (XII) single subcutaneous administration, plasma calcium in rats; type: in vivo, rat; conditions: for Plasma calcium red (%) 0-12 h: single s.c., maximal reduction 0-12 h, compared to vehicle; for suppression of plasma calcium level relative to vehicle: single subcutaneous, over 24 hours
Procedure: Assay (XII)—Effect from Single Subcutaneous Administration of Analogue on Plasma Calcium in Rats
Male Wistar rats (Taconic Europe, ˜250 g at test date) were acclimatized to handling prior to the study. Rats were divided in groups of five and subcutaneously dosed with test compound at time=0. At time T=−15 min; 1 h, 2 h, 4 h, 7 h, 12 h, and 24 h a blood sample was obtained and heparin stabilized plasma was analysed for total calcium (Cobas, Hitachi). Data are illustrated in graphs as mean±SEM.

[3] = target: T2, human calcitonin receptor; experiment: Assay (II)a functional assay, human calcitonin receptor (CRE luciferase, BHK cells);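 note: luminescence from a CRE-driven luciferase reporter, read by single photon counting after cells were exposed to test samples for 3 h at 37 °C under 5% CO2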; type: cell-based; conditions: read-out: hCTR funct. EC50
human amylin receptor = target: T3, human amylin receptor (Homo sapiens, UniProt O60896+P30988); experiment: Assay (V) binding to the human amylin receptor (SPA, 125I-rat amylin); conditions: human amylin receptor membranes, SPA; read-out: hAmylin-R bind IC50
T3 construct: expressed in transfected cells
T3 sequence (P30988 25-474): T1 sequence (P30988 25-474)
T3 sequence (O60896 24-148 partner): T1 sequence (O60896 24-148 partner)
Summary of the method: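 IC50, taken as receptor affinity, came from one-site binding competition analysis of scintillation proximity counts. Amylin 3(a)/CRE-luc cell membranes (35 ng/μL final) were mixed with SPA beads (0.05 mg/well) in 50 mM Hepes pH 7.4 containing CaCl2, MgCl2, 0.1% OA and 0.02% Tween20.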

Row | Ratio hCT/hAmylin funct. ([1]; Table 6, human functional selectivity (hCTR EC50 / hAmylin-R EC50)) | Ratio hCT/hAmylin funct. ([1]; Table 6a, human functional selectivity (hCTR EC50 / hAmylin-R EC50), at least 5) | Ratio hCT/hAmylin funct. ([1]; Table 6i, hCTR funct. EC50 / hAmylin-R funct. EC50) | Ratio hCT/hAmylin funct. ([1]; Table 6j, hCTR funct. EC50 / hAmylin-R funct. EC50) | Ratio hCT/hAmylin funct. ([1]; Table 6k, hCTR funct. EC50 / hAmylin-R funct. EC50) | EC50 [1] | IC50 [2] | EC50 [3] | IC50 (human amylin receptor) | SMILES | Plasma calcium red (%) 0-12 h (Wistar rats; 30 nmol/kg) | suppression of plasma calcium level relative to vehicle (Wistar rats; 30 nmol/kg) | Plasma calcium red (%) 0-12 h (Wistar rats; 100 nmol/kg) | suppression of plasma calcium level relative to vehicle (Wistar rats; 100 nmol/kg)
1 | 14.0 | 14.0 | 14.0 | 14.0 | 14.0 | 0.372 nM | 31.1 nM | 5.22 nM | 0.828 nM | CC[C@H](C)[C@H](NC(=O)[C@H](C)NC(=O)CNC(=O)[C@H](Cc1ccccc1)NC(=O)[C@H](CC(N)=O)NC(=O)[C@@H]1CCCN1C(=O)[C@H](CO)NC(=O)[C@H](CO)NC(=O)[C@H](Cc1c[nH]cn1)NC(=O)[C@H](CCCNC(=N)N)NC(=O)[C@H](CC(C)C)NC(=O)[C@H](Cc1ccccc1)NC(=O)[C@H](CCC(=O)O)NC(=O)[C@H](C)NC(=O)[C@H](CC(C)C)NC(=O)[C@H](CCCNC(=N)N)NC(=O)[C@H](CCC(N)=O)NC(=O)[C@@H](NC(=O)[C@H](C)NC(=O)[C@@H]1CSSC[C@H](NC(=O)[C@@H](N)CCCCNC(=O)CC[C@H](NC(=O)CCCCCCCCCCCCCCCCCCC(=O)O)C(=O)O)C(=O)N[C@@H](CC(N)=O)C(=O)N[C@@H]([C@@H](C)O)C(=O)N[C@@H](C)C(=O)N[C@@H]([C@@H](C)O)C(=O)N1)[C@@H](C)O)C(=O)N1CCC[C@H]1C(=O)N[C@@H](CO)C(=O)N[C@@H](CO)C(=O)N[C@H](C(=O)N[C@@H](CC(N)=O)C(=O)N[C@H](C(=O)NCC(=O)N[C@@H](CO)C(=O)N[C@@H](CCCNC(=N)N)C(=O)N[C@H](C(=O)N[C@@H](Cc1ccc(O)cc1)C(N)=O)[C@@H](C)O)C(C)C)[C@@H](C)O [Example 51] (H-K([γGlu-C20 diacid])CNTATCATQRLAEFLRHSSPNFGAIPSSTNVGSRTY-NH2; disulfide 2-7) | 10% | None of the example compounds at 30 nmol/kg trigger a notable suppression of the calcium level | – | –
2 | – | – | – | – | – | 0.101 nM | 3.8 nM | 1.45 nM | 0.179 nM | CC[C@H](C)[C@H](NC(=O)[C@H](C)NC(=O)CNC(=O)[C@H](Cc1ccccc1)NC(=O)[C@H](CC(N)=O)NC(=O)[C@@H]1CCCN1C(=O)[C@H](CO)NC(=O)[C@H](CO)NC(=O)[C@H](Cc1c[nH]cn1)NC(=O)[C@H](CCCNC(=N)N)NC(=O)[C@H](CC(C)C)NC(=O)[C@H](Cc1ccccc1)NC(=O)[C@H](CCC(=O)O)NC(=O)[C@H](C)NC(=O)[C@H](CC(C)C)NC(=O)[C@H](CCCNC(=N)N)NC(=O)[C@H](CCC(N)=O)NC(=O)[C@@H](NC(=O)[C@H](C)NC(=O)[C@@H]1CSSC[C@H](NC(=O)[C@@H](N)CCCCNC(=O)CC[C@H](NC(=O)CCCCCCCCCCCCCCCCCCC(=O)O)C(=O)O)C(=O)N[C@@H](CC(N)=O)C(=O)N[C@@H]([C@@H](C)O)C(=O)N[C@@H](C)C(=O)N[C@@H]([C@@H](C)O)C(=O)N1)[C@@H](C)O)C(=O)N1CCC[C@H]1C(=O)N[C@@H](CO)C(=O)N[C@@H](CO)C(=O)N[C@H](C(=O)N[C@@H](CC(N)=O)C(=O)N[C@H](C(=O)NCC(=O)N1CCC[C@H]1C(=O)N[C@@H](Cc1c[nH]cn1)C(=O)N[C@H](C(=O)N[C@@H](Cc1ccc(O)cc1)C(N)=O)[C@@H](C)O)C(C)C)[C@@H](C)O [Example 118] (H-K([γGlu-C20 diacid])CNTATCATQRLAEFLRHSSPNFGAIPSSTNVGPHTY-NH2; disulfide 2-7) | 26% | – | – | –
3 | – | – | – | – | – | 0.182 nM | 19.5 nM | 3 nM | 0.411 nM | CC[C@H](C)[C@H](NC(=O)[C@H](C)NC(=O)CNC(=O)[C@H](Cc1ccccc1)NC(=O)[C@H](CC(N)=O)NC(=O)[C@@H]1CCCN1C(=O)[C@H](CO)NC(=O)[C@H](CO)NC(=O)[C@H](Cc1c[nH]cn1)NC(=O)[C@H](CCCNC(=N)N)NC(=O)[C@H](CC(C)C)NC(=O)[C@H](Cc1ccccc1)NC(=O)[C@H](CC(=O)O)NC(=O)[C@H](C)NC(=O)[C@H](CC(C)C)NC(=O)[C@H](CCCNC(=N)N)NC(=O)[C@H](CCC(N)=O)NC(=O)[C@@H](NC(=O)[C@H](C)NC(=O)[C@@H]1CSSC[C@H](NC(=O)[C@@H](N)CCCCNC(=O)CC[C@H](NC(=O)CC[C@H](NC(=O)CCCCCCCCCCCCCCCCCCC(=O)O)C(=O)O)C(=O)O)C(=O)N[C@@H](CC(N)=O)C(=O)N[C@@H]([C@@H](C)O)C(=O)N[C@@H](C)C(=O)N[C@@H]([C@@H](C)O)C(=O)N1)[C@@H](C)O)C(=O)N1CCC[C@H]1C(=O)N[C@@H](CO)C(=O)N[C@@H](CO)C(=O)N[C@H](C(=O)N[C@@H](CC(N)=O)C(=O)N[C@H](C(=O)NCC(=O)N[C@@H](CO)C(=O)N[C@@H](CC(=O)O)C(=O)N[C@H](C(=O)N[C@@H](Cc1ccc(O)cc1)C(N)=O)[C@@H](C)O)C(C)C)[C@@H](C)O [Example 2] (H-K([γGlu-γGlu-C20 diacid])CNTATCATQRLADFLRHSSPNFGAIPSSTNVGSDTY-NH2; disulfide 2-7) | – | – | 9% | does not trigger a notable suppression of the calcium level

Reference: patent US8575091B1, “Amylin analogues and pharmaceutical compositions thereof” (Novo Nordisk A/S, priority 2012, dated 2013)
